# Experimental data as given in ChEMBL document CHEMBL1135881, “Ribose-modified nucleosides as ligands for adenosine receptors: synthesis, conformational analysis, and biological evaluation of 1'-C-methyl adenosine analogues” (J Med Chem, 2002).
# How the values were obtained:
# [1] = biological target: Adenosine receptors; A1 & A3 (Rattus norvegicus) (UniProt P25099+P28647); experiment: Selectivity for Adenosine A3 over Adenosine A1 receptor; assay type: protein assay
# Adenosine receptor A1 = biological target: T1, Adenosine receptor A1 (Rattus norvegicus, UniProt P25099)
# T1 sequence (P25099 whole entry): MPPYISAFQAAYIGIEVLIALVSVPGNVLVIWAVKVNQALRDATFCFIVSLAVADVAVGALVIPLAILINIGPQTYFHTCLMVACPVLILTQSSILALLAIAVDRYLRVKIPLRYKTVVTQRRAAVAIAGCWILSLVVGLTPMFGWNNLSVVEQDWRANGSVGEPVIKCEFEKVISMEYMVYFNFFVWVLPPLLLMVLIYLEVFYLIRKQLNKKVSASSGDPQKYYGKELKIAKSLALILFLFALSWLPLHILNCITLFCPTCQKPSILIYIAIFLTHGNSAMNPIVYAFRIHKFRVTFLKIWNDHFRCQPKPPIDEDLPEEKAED
# Description: Inhibition of [3H]CHA (N6-cyclohexyl adenosine) to rat brain membrane Adenosine A1 receptor
# Rattus norvegicus [2] = species on record: Rattus norvegicus; experiment: Inhibition of Adenylyl cyclase activity in rat cortical membranes; assay type: functional
# Rattus norvegicus [3] = species on record: Rattus norvegicus; experiment: % maximal inhibition of Adenylyl cyclase activity in rat cortical membranes at 100 uM; assay type: functional
# Adenosine receptor A3 = biological target: T2, Adenosine receptor A3 (Rattus norvegicus, UniProt P28647); experiment: Affinity to Adenosine A3 receptor of rat testis membrane using [3H](R)-PIA with 150 nM DPCPX
# T2 sequence (P28647 whole entry): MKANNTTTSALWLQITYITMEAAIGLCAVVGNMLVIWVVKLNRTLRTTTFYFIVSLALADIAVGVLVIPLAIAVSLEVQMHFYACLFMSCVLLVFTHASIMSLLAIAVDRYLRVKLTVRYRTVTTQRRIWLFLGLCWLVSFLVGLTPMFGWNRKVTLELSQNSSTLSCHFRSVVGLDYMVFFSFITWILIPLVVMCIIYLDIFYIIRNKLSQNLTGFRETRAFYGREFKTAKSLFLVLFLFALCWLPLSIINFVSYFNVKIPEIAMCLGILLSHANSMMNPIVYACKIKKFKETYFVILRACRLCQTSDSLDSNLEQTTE
# Adenosine receptor A2a = Adenosine receptor A2a (Rattus norvegicus, UniProt P30543); experiment: Affinity to Adenosine A2A receptor of rat brain striatum using [3H]-CGS- 21680; assay type: tissue-based
# [4] = biological target: T3, Adenosine receptor A3 (Rattus norvegicus) (UniProt P28647); experiment: Displacement of [3H](R)-PIA from Adenosine A3 receptor of rat testis membrane with 150 nM DPCPX
# T3 sequence (whole entry): T2 sequence (P28647 whole entry)
# Rattus norvegicus [5] = species on record: Rattus norvegicus; experiment: % maximal inhibition of Adenylyl cyclase activity in rat cortical membranes at 10 uM; assay type: functional
# [6] = biological target: T3, Adenosine receptor A3 (Rattus norvegicus); experiment: Displacement of [3H](R)-PIA from Adenosine A3 receptor of rat testis membrane with 150 nM DPCPX at 10e-5 M
# Sequence of Adenosine receptor A2a (P30543 whole entry): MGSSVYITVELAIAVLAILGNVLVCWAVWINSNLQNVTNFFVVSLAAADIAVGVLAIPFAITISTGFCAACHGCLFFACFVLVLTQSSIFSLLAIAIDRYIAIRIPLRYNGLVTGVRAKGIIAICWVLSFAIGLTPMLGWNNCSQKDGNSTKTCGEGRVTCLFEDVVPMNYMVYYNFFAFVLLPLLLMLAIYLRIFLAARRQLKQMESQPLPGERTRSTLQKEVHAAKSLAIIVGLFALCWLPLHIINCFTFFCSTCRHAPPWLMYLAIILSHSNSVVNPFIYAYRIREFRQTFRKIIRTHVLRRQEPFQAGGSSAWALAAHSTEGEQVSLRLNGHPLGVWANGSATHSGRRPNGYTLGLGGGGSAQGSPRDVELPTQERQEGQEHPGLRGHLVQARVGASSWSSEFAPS
SMILES,Selectivity [1],Ki (Adenosine receptor A1) [nM],IC50 (Rattus norvegicus [2]) [nM],Max inhibition (Rattus norvegicus [3]) [%],Ki (Adenosine receptor A3) [nM],other results
C[C@@]1(O)[C@@H](CO)O[C@@H](n2cnc3c(N)ncnc32)[C@@H]1O,> 202,–,–,–,–,–
C[C@@]1(O)[C@H](O)[C@@H](CO)O[C@H]1n1cnc2c(NC3CCCC3)ncnc21,22.1,9.5,–,–,–,–
C[C@@H](Cc1ccccc1)Nc1ncnc2c1ncn2[C@]1(C)O[C@H](CO)[C@@H](O)[C@H]1O,–,270,140,29,6160,–
C[C@H](Cc1ccccc1)Nc1ncnc2c1ncn2[C@@H]1O[C@H](CO)[C@@H](O)[C@@]1(C)O,230,4.7,–,–,–,Ki (Adenosine receptor A2a): 7400 nM
C[C@@H](Cc1ccccc1)Nc1ncnc2c1ncn2C1O[C@H](CO)[C@@H](O)[C@@]1(C)O (some centres undefined),200,50,–,–,–,–
C[C@@]1(n2cnc3c(N)ncnc32)O[C@H](CO)[C@@H](O)[C@H]1O,> 1.3,7700,3440,22,–,Displacement [4]: 19%
OC[C@H]1O[C@@H](n2cnc3c(NC4CCCC4)ncnc32)[C@H](O)[C@@H]1O [N6-CYCLOPENTYLADENOSINE],–,–,–,–,–,Max inhibition (Rattus norvegicus [5]): 15.5%; Ki (Adenosine receptor A2a): 380 nM
C[C@@]1(n2cnc3c(NC4CCCC4)ncnc32)O[C@H](CO)[C@@H](O)[C@H]1O,52,100,357,17.4,5170,–
C[C@H](Cc1ccccc1)Nc1ncnc2c1ncn2[C@]1(C)O[C@H](CO)[C@@H](O)[C@H]1O,–,–,65,23.7,670,–
C[C@@]1(O)[C@H](O)[C@@H](CO)O[C@H]1n1cnc2c(N)ncnc21,–,740,–,–,–,Displacement [6]: 0%
